These results are taken from US9949975B2, “Inhibitors of beta-secretase” (Vitae Pharmaceuticals, Inc., priority 2012, dated 2018).

In the data set the target is hERG channel (Homo sapiens (Human), UniProt Q12809). The data set can be described thus: hERG-Channel Assay (Assay 3), whole-cell patch clamp. Format: cell-based. The note with it: HEK293 cells transfected with hERG, 35° C. An excerpt: HEK (human embryonic kidney) 293 cells were stably transfected with hERG cDNA.
Chain of hERG channel (Q12809 whole entry, the tested form may be a part): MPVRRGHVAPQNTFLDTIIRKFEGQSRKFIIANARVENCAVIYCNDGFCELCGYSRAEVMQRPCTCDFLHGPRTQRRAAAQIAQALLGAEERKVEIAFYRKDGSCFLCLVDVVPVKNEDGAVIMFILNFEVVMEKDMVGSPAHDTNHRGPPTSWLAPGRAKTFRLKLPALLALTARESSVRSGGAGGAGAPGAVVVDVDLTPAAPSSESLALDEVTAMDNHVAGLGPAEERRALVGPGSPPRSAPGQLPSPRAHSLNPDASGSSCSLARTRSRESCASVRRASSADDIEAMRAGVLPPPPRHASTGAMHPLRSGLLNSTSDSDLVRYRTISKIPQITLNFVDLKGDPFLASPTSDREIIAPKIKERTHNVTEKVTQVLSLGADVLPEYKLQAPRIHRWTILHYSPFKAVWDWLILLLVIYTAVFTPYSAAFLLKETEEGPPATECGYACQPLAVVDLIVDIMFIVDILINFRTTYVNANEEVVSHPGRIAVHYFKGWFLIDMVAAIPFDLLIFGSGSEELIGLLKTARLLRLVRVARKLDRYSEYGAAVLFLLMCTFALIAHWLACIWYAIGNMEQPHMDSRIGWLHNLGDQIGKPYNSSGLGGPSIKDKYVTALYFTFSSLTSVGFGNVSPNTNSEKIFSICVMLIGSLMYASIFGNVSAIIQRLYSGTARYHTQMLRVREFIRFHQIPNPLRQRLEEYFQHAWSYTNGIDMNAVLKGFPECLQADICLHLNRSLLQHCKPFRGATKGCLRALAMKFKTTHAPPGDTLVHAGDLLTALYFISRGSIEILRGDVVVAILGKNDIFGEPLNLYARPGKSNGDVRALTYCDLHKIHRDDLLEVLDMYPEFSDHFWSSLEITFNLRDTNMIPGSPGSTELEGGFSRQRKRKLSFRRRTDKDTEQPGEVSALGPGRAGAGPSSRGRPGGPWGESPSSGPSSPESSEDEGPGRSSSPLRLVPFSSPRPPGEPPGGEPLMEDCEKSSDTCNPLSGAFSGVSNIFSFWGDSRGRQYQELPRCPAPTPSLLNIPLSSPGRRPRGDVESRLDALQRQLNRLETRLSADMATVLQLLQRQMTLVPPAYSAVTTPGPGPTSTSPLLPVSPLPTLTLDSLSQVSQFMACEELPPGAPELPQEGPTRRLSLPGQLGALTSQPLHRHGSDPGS
Cells were superfused with a bath solution containing (mM): NaCl (137), KCl (4.0), MgCl2 (1.0), CaCl2 (1.8), Glucose (10), HEPES (10), pH 7.4 with NaOH. Patch pipettes were made from borosilicate glass tubing using a horizontal puller and filled with pipette solution containing (mM): K-aspartate (130), MgCl2 (5.0), EGTA (5.0), K2ATP (4.0), HEPES (10.0), pH 7.2 with KOH. Resistance of the microelectrodes was in the range between 2 and 5 MΩ.
Membrane currents were recorded using an EPC-10 patch clamp amplifier and PatchMaster software. hERG-mediated membrane currents were recorded at 35° C., using the whole-cell configuration of the patch-clamp technique. Transfected HEK293 cells were clamped at a holding potential of −60 mV and hERG-mediated inactivating tail currents were elicited using a pulse pattern with fixed amplitudes (activation/inactivation: 40 mV for 2000 ms; recovery: −120 mV for 2 ms; ramp to 40 mV in 2 ms; inactivating tail current: 40 mV for 50 ms) repeated at 15 s intervals. During each inter-pulse interval 4 pulses scaled down by a factor of 0.2 were recorded for a P/n leak subtraction procedure. Rs compensation was employed up to a level that safely allowed recording devoid of ringing.
The different concentrations of the test compound were applied sequentially on each of the different cells investigated. A steady state level of baseline current was measured for at least 6 sweeps prior to the application of the first test compound concentration.
The test compound was dissolved in DMSO to yield a master stock solution which was diluted further in DMSO to stock solutions needed for the lower concentrations. Final dilutions in extracellular buffer were prepared freshly from these stocks by a 1:1000 dilution step each before starting the experiments.
Peak current amplitudes were measured 3 ms after the ramp to +40 mV. For baseline and each concentration the peak currents of the three last sweeps before application of the next concentration were averaged. Residual currents (I/I0) were calculated for each cell as the fraction of actual average peak current and average baseline peak current. Results are presented as percent (%) inhibition (1−I/I0)*100% at 10 μM.
A general note: Block of hERG is tested as a sign of cardiac risk.
For the molecule `CO[C@H]1[C@H](C)C[C@@]2(Cc3ccc(C#N)cc3[C@]23N=C(N)N(C[C@@H]2CCO2)C3=O)C[C@@H]1C` (stereo in doubt) [Example 18], the “hERG % inhibition @ 10 μM (assay 3)” value is 17%.
Next, `COC1CCC2(CC1)Cc1ccc(C#N)cc1C21N=C(N)N(CC2CCCO2)C1=O` (stereo not drawn) [Comparison example drawing 13, reference compound]: 16%; `CC[C@@H]1C[C@]2(CC[C@H]1OC)Cc1ccc(C#N)cc1[C@]21N=C(N)N(Cc2ncccn2)C1=O` [Example 1]: 8%.
Next, `CC[C@@H]1C[C@]2(CC[C@H]1OC)Cc1ccc(C#N)cc1[C@]21N=C(N)N(CC2CCOCC2)C1=O` [Example 2]: 22%; `CC[C@@H]1C[C@]2(CC[C@H]1OC)Cc1ccc(C#N)cc1[C@]21N=C(N)N(CC(C)(C)F)C1=O` [Example 3]: 9%; `CC[C@@H]1C[C@]2(CC[C@H]1OC)Cc1ccc(C#N)cc1[C@]21N=C(N)N(CC2(F)CCOCC2)C1=O` [Example 4]: 0%.
Next, `CC[C@H]1C[C@@]2(CC[C@@H]1OC)Cc1ccc(C#N)cc1[C@]21N=C(N)N(C[C@H]2CCCO2)C1=O` [Example 5]: 7%; `CO[C@H]1CC[C@@]2(Cc3ccc(C#N)cc3[C@]23N=C(N)N(Cc2ncccn2)C3=O)C[C@@H]1C` [Example 6]: 35%.
For the molecule `COCCN1C(=O)[C@]2(N=C1N)c1cc(C#N)ccc1C[C@@]21CC[C@H](OC)[C@@H](C)C1` [Example 7], the “hERG % inhibition @ 10 μM (assay 3)” value came out at 8%.
Turning to `CO[C@H]1CC[C@@]2(Cc3ccc(C#N)cc3[C@]23N=C(N)N(CC2(C)COC2)C3=O)C[C@@H]1C` [Example 8], the “hERG % inhibition @ 10 μM (assay 3)” value was determined as 16%.
Take `CO[C@H]1CC[C@@]2(Cc3ccc(C#N)cc3[C@]23N=C(N)N(Cc2ccncn2)C3=O)C[C@@H]1C` [Example 9]: the “hERG % inhibition @ 10 μM (assay 3)” value amounted to 16%.
Next, `CO[C@H]1[C@H](C)C[C@@]2(Cc3ccc(C#N)cc3[C@]23N=C(N)N(Cc2ncc(F)cn2)C3=O)C[C@@H]1C` [Example 10]: 38%; `CO[C@H]1[C@H](C)C[C@@]2(Cc3ccc(C#N)cc3[C@]23N=C(N)N(CC2(C)COC2)C3=O)C[C@@H]1C` [Example 11]: 6%; `CO[C@H]1[C@H](C)C[C@@]2(Cc3ccc(C#N)cc3[C@]23N=C(N)N(C2COC2)C3=O)C[C@@H]1C` [Example 12]: 11%.
Next, `CO[C@H]1[C@H](C)C[C@@]2(Cc3ccc(C#N)cc3[C@]23N=C(N)N(CC2COC2)C3=O)C[C@@H]1C` [Example 13]: 18%; `CO[C@H]1[C@H](C)C[C@@]2(Cc3ccc(C#N)cc3[C@]23N=C(N)N(C[C@H]2CCCO2)C3=O)C[C@@H]1C` [Example 14]: 20%.
With `CO[C@H]1[C@H](C)C[C@@]2(Cc3ccc(C#N)cc3[C@]23N=C(N)N(C[C@@H]2CCCO2)C3=O)C[C@@H]1C` [Example 15], the “hERG % inhibition @ 10 μM (assay 3)” value was found to be 11%.
With `CO[C@H]1[C@H](C)C[C@@]2(Cc3ccc(C#N)cc3[C@]23N=C(N)N(CC2CCOCC2)C3=O)C[C@@H]1C` [Example 16] the figure was 6%; with `CO[C@H]1[C@H](C)C[C@@]2(Cc3ccc(C#N)cc3[C@]23N=C(N)N(CC(C)(C)F)C3=O)C[C@@H]1C` [Example 17], 12%.
With `CO[C@H]1[C@H](C)C[C@@]2(Cc3ccc(C#N)cc3[C@]23N=C(N)N(CCC2COC2)C3=O)C[C@@H]1C` [Example 19] the figure was 8%.
With `CO[C@H]1[C@H](C)C[C@@]2(Cc3ccc(C#N)cc3[C@]23N=C(N)N(CC2(C)OCCO2)C3=O)C[C@@H]1C` [Example 20] the figure was 8%; with `CO[C@H]1[C@H](C)C[C@@]2(Cc3ccc(C#N)cc3[C@]23N=C(N)N(C[C@@H]2COCCO2)C3=O)C[C@@H]1C` [Example 21], 24%.
As for `CO[C@H]1[C@H](C)C[C@@]2(Cc3ccc(C#N)cc3[C@]23N=C(N)N(C[C@H]2COCCO2)C3=O)C[C@@H]1C` [Example 22], the “hERG % inhibition @ 10 μM (assay 3)” value was found to be 9%.
Next, `CO[C@H]1[C@H](C)C[C@@]2(Cc3ccc(C#N)cc3[C@]23N=C(N)N(CC2(F)CCOCC2)C3=O)C[C@@H]1C` [Example 23]: 16%; `CO[C@H]1[C@H](C)C[C@@]2(Cc3ccc(C#N)cc3[C@]23N=C(N)N(Cc2ccncn2)C3=O)C[C@@H]1C` [Example 24]: 23%; `CO[C@H]1[C@H](C)C[C@@]2(Cc3ccc(F)cc3[C@]23N=C(N)N(C[C@@H]2CCOC2)C3=O)C[C@@H]1C` [Example 25]: 10%.
Regarding `CC[C@@H]1C[C@@]2(Cc3ccc(C#N)cc3[C@]23N=C(N)N(CC(C)(C)F)C3=O)C[C@H](C)[C@H]1OC` [Example 26], the “hERG % inhibition @ 10 μM (assay 3)” value worked out at 8%.
With `CO[C@H]1CC[C@@]2(Cc3ccc(C#N)cc3[C@]23N=C(N)N(CC2COCCO2)C3=O)C[C@@H]1C` (stereo partly drawn) [Example 27] the figure was 19%; with `CC[C@@H]1C[C@]2(CC[C@H]1OC)Cc1ccc(C#N)cc1[C@]21N=C(N)N(C[C@H]2COCCO2)C1=O` [Example 28], 9%.
Next, `CO[C@H]1[C@H](C)C[C@@]2(Cc3ccc(F)cc3[C@]23N=C(N)N(CC2(C)OCCO2)C3=O)C[C@@H]1C` [Example 29]: 7%.
